In brackets after ≈: the same amount, converted by molar mass. Where two headings read alike, the source gives them in different places.
Tests used:
[1] = Amorphous solubility of PA-824; assay type: physicochemical
[2] = Kinetic solubility of Soluplus ASDs with different drug loadings in FaSSIF at 37° C.; assay type: physicochemical; details: thermodynamic from solid, Table 8, FaSSIF
Experimental: (§1) 10 mL of FaSSIF was added into 3 vials containing each ASD (equivalent to 5 mg API) prepared by nanospray drying, respectively, then the suspensions were shaken using a thermomixer at 37° C. under 100 rpm, 300 μL of suspensions were withdrawn at 15, 30, 45, 60, 90, 120 and 180 mins. The samples of suspensions were centrifuged at 3000 rpm for 5 min. The supernatants were diluted with the diluent (ACN/water, 75/25) and analyzed by HPLC.

[3] = test system: Gram-positive and Gram-negative bacteria; details: cited from earlier work
[4] = test system: cytochrome P450; details: cited from earlier work
[5] = Equilibrium solubility of PA-824 in FaSSIF containing 2% DMSO; assay type: physicochemical; details: thermodynamic from solid, 25° C.
[6] = Induction time of crystallization of PA-824 in presence of HPMCAS; assay type: physicochemical
[7] = Kinetic solubility of nanospray-dried ASDs in FaSSIF at 37° C.; assay type: physicochemical; details: thermodynamic from solid
Experimental: as §1, with “of FASSIF” for “of FaSSIF”, “into 8” for “into 3”, “ASD” for “ASD (equivalent to 5 mg API)”, “prepared before” for “prepared”, “centrifuged in 96-well plates” for “centrifuged”, “(ACN/water, 50/50)” for “(ACN/water, 75/25)”

[8] = Supersaturated solubility measurement in FaSSIF with 2% DMSO; assay type: physicochemical; details: for solubility kinetic at 16 min: read-out: Measured conc.(μg/mL)
Experimental: Then 20 μL of each DMSO stock solution was added to FaSSIF at 1:49 to make the final DMSO concentration at 2% v/v. The samples were stirred at room temperature for 16 min, centrifuged and supernatants analyzed by HPLC.

[9] = Kinetic solubility of HME ASDs in FaSSIF at 37° C.; assay type: physicochemical; details: thermodynamic from solid; for solubility at 15 min: read-out: Solubility (μg/mL) 15 min; for solubility at 30 min: read-out: Solubility (μg/mL) 30 min; for solubility at 60 min: read-out: Solubility (μg/mL) 60 min; for solubility at 90 min: read-out: Solubility (μg/mL) 90 min; for solubility at 120 min: read-out: Solubility (μg/mL) 120 min; for solubility at 180 min: read-out: Solubility (μg/mL) 180 min
Experimental: (§2) 10 mL of FaSSIF was added into 4 vials containing each ASD (equivalent to 5mg API) prepared by Hot melt extrusion, respectively, then the suspensions were shaken using a thermomixer at 37° C. under 100 rpm, 300 μL of suspensions were withdrawn at 15, 30, 45, 60, 90, 120 and 180 mins. The samples of suspensions were centrifuged at 14000 rpm for 10 min. The supernatants were diluted with the diluent (ACN/water, 50/50) and analyzed by UPLC.
The milled ASD products were sieved with 60 mesh sieve, and kinetic solubility test was performed with sieved ASD products as well (Table 14).

[10] = Kinetic solubility of nano suspension after lyophilization in FaSSIF at 37° C.; assay type: physicochemical; details: thermodynamic from solid, Table 20, FaSSIF
Experimental: as §2, with “into 2” for “into 4”, “containing 2 batches of nano suspension after Lyophilization” for “containing each ASD”, “to 2 mg API),” for “to 5mg API) prepared by Hot melt extrusion, respectively,”, “C. and” for “C. under”

[11] = assay type: physicochemical
Experimental: 10 mL of SGF was added into 8 vials containing each ASD prepared by vacuum drying as described above, then the suspensions were shaken using a thermomixer at 37° C. under 100 rpm, 300 μL of suspensions were withdrawn at 1 h and the pH values were recorded. After that, 10 mL of FaSSIF was added into the suspensions containing SGF, 300 μL of suspensions were withdrawn at 1 h and 3 h, the pH values in 3 h were also recorded. The samples of suspensions were centrifuged in 96-well plates at 3000 rpm for 2 min. The supernatants were diluted with the diluent (ACN/water, 50/50) and analyzed by HPLC. […]

[12] = 15 min, read-out: Solubility (μg/mL) 15 min
[13] = 30 min, read-out: Solubility (μg/mL) 30 min
[14] = 45 min, read-out: Solubility (μg/mL) 45 min
[15] = 60 min, read-out: Solubility (μg/mL) 60 min
[16] = 90 min, read-out: Solubility (μg/mL) 90 min
[17] = 180 min, read-out: Solubility (μg/mL) 180 min

Compound O=[N+]([O-])c1cn2c(n1)OC[C@@H](OCc1ccc(OC(F)(F)F)cc1)C2 [PA-824, (6S)-2-nitro-6-{[4-(trifluoromethoxy)benzyl]oxy}-6,7-dihydro-5H-imidazo[2,1-b][1,3]oxazine] has a solubility ([1]; aqueous buffer, in PBS) of about 0.16 mg/mL (≈ 445 µM), a solubility ([1]; in FaSSIF V1) of about 0.3 mg/mL (≈ 835 µM) and a solubility at 15 min [2, 12] of 22.1 µg/mL (≈ 61.7 µM). For the same compound, the solubility at 30 min [2, 13] was 23.7 µg/mL (≈ 65.9 µM), the solubility at 45 min [2, 14] was 26.1 µg/mL (≈ 72.5 µM) and the solubility at 60 min [2, 15] was 26.3 µg/mL (≈ 73.3 µM). For the same compound, the solubility at 90 min [2, 16] was 23.6 µg/mL (≈ 65.8 µM), the solubility at 180 min [2, 17] was 24.4 µg/mL (≈ 68 µM) and the “activity against a broad range of Gram-positive and Gram-negative bacteria” value [3] was “no significant activity”. The “cytochrome P450 interactions” value [4] was “no significant cytochrome P450 interactions”, the solubility thermodynamic at 18 h [5] was 0.0514 mg/mL (≈ 143 µM) and the “Induction Time” value ([6]; 160 ug/mL PA-824, FaSSIF V1) was 0.89 ± 0.26 min. For the same compound, the “Induction Time” value ([6]; 160 ug/mL PA-824, FaSSIF V1 + HF (1 mg/mL)) was 77.6 ± 13.6 min, the “Induction Time” value ([6]; 160 ug/mL PA-824, PBS pH 6.5) was 1.39 ± 0.18 min and the “Induction Time” value ([6]; 160 ug/mL PA-824, PBS pH 6.5 + HF (1 mg/mL)) was 43.75 ± 1.34 min. The Induction Time ([6]; PA-824 80 μg/mL, PBS pH 6.5, HPMCAS-HF 10 μg/mL) was “about 77.5 minutes”, the solubility at 15 min [7, 12] was 22.1 µg/mL (≈ 61.7 µM) and the solubility at 30 min [7, 13] was 23.7 µg/mL (≈ 65.9 µM). The solubility at 45 min [7, 14] was 26.1 µg/mL (≈ 72.5 µM), the solubility at 60 min [7, 15] was 26.3 µg/mL (≈ 73.3 µM) and the solubility at 90 min [7, 16] was 23.6 µg/mL (≈ 65.8 µM). For the same compound, the solubility at 180 min [7, 17] was 24.4 µg/mL (≈ 68 µM), the solubility at 16 min ([8]; fassif, kinetic from dmso stock) was 0.0533 mg/mL (≈ 148 µM) and the solubility kinetic at 16 min ([8]; fassif, kinetic from dmso stock, target conc. 205.60 μg/mL) was 30.8 µg/mL (≈ 85.8 µM). For the same compound, the solubility kinetic at 16 min ([8]; fassif, kinetic from dmso stock, target conc. 514.00 μg/mL) was 29.5 µg/mL (≈ 82.1 µM), the solubility kinetic at 16 min ([8]; fassif, kinetic from dmso stock, target conc. 616.80 μg/mL) was 28.7 µg/mL (≈ 79.9 µM) and the solubility kinetic at 16 min ([8]; fassif, kinetic from dmso stock, target conc. 771.00 μg/mL) was 30.3 µg/mL (≈ 84.4 µM). For the same compound, the “Measured conc.(μg/mL)” value ([8]; target conc. 51.40 μg/mL) was 53.08 µg/mL, the “Measured conc.(μg/mL)” value ([8]; target conc. 102.80 μg/mL) was 53.27 µg/mL and the “Measured conc.(μg/mL)” value ([8]; target conc. 411.20 μg/mL) was 32.98 µg/mL. The “Measured conc.(μg/mL)” value ([8]; target conc. 1028.00 μg/mL) was 30.32 µg/mL, the solubility at 15 min ([9]; after sieving (60 mesh)) was 31.7 µg/mL (≈ 88.3 µM) and the solubility at 30 min ([9]; after sieving (60 mesh)) was 31.2 µg/mL (≈ 86.9 µM). For the same compound, the solubility at 45 min ([9]; after sieving (60 mesh), 45 min, read-out: Solubility (μg/mL) 45 min) was 32.8 µg/mL (≈ 91.2 µM), the solubility at 60 min ([9]; after sieving (60 mesh)) was 33.5 µg/mL (≈ 93.3 µM) and the solubility at 90 min ([9]; after sieving (60 mesh)) was 32.6 µg/mL (≈ 90.9 µM). It also gave a solubility at 120 min ([9]; after sieving (60 mesh)) of 39.6 µg/mL (≈ 110 µM), a solubility at 180 min ([9]; after sieving (60 mesh)) of 31.6 µg/mL (≈ 87.8 µM) and a solubility at 15 min ([9]; without sieving) of 37.2 µg/mL (≈ 103 µM). The solubility at 30 min ([9]; without sieving) was 41.3 µg/mL (≈ 115 µM), the solubility at 60 min ([9]; without sieving) was 46.2 µg/mL (≈ 129 µM) and the solubility at 90 min ([9]; without sieving) was 41.3 µg/mL (≈ 115 µM). It also gave a solubility at 120 min ([9]; without sieving) of 41.4 µg/mL (≈ 115 µM), a solubility at 180 min ([9]; without sieving) of 40.7 µg/mL (≈ 113 µM) and a solubility at 15 min [10, 12] of 31.7 µg/mL (≈ 88.3 µM). It also gave a solubility at 30 min [10, 13] of 31.2 µg/mL (≈ 86.9 µM), a solubility at 45 min [10, 14] of 32.8 µg/mL (≈ 91.2 µM) and a solubility at 60 min [10, 15] of 33.5 µg/mL (≈ 93.3 µM). For the same compound, the solubility at 90 min [10, 16] was 32.6 µg/mL (≈ 90.9 µM), the solubility at 120 min ([10]; 120 min, read-out: Solubility (μg/mL) 120 min) was 39.6 µg/mL (≈ 110 µM) and the solubility at 180 min [10, 17] was 31.6 µg/mL (≈ 87.8 µM). The “FaSSIF Conc. (μg/mL) (1 hr)” value ([11]; 1 h) was 23.95 µg/mL, the “SGF Conc. (μg/mL) (1 hr)” value ([11]; 1 h) was 12.46 µg/mL and the “FaSSIF Conc. (μg/mL) (3 hr)” value ([11]; 3 h) was 24.89 µg/mL.

— patent US20240199639A1, “PRETOMANID AMORPHOUS FORM” (THE GLOBAL ALLIANCE FOR TB DRUG DEVELOPMENT, INC., priority 2021, published 2024)
